Measured values from paper PMC9321043, “Synthesis, Structure–Activity Relationships, and Parasitological Profiling of Brussonol Derivatives as New Plasmodium falciparum Inhibitors” (Pharmaceuticals, 2022).
Read-outs that look alike come from different tables or passages of the source.

Legend:
[1] = test system: P. falciparum Dd2 strain; assay: Resistance assessment, Dd2 strain; type: cell-based; conditions: Plasmodium falciparum
[2] = test system: P. falciparum TM90C6B strain; assay: Resistance assessment, TM90C6B strain; type: cell-based; conditions: Plasmodium falciparum
[3] = test system: P. falciparum 3D7^r_MMV848 strain; assay: Resistance assessment, 3D7r-MMV848 strain; type: cell-based; conditions: Plasmodium falciparum
[4] = test system: P. knowlesi; assay: In vitro evaluation against P. knowlesi, NanoLuc luminescence; type: cell-based; conditions: Plasmodium knowlesi, 40 h
Procedure: The P. falciparum strains were cultivated in human blood cells (hRBC) O^+, while P. knowlesi was cultivated in rhesus red blood cells (rRBC) as described. P. falciparum complete RPMI (consisting of RPMI-1640, supplemented with 0.2% NaHCO3, 25 mM HEPES (pH 7.4), 11 mM D-glucose, 10 mg/L hypoxanthine, 25 mg/L gentamicin, and 0.5% (m/v) AlbuMAX II). The parasitemias of these cultures were maintained below 10% with 2.5% hematocrit. P. knowlesi complete RPMI (consisting of RPMI-1640 supplemented with 25 mM HEPES, […] hypoxanthine, 0.26% NaHCO3, 10 mg/L gentamicin, and 1% Albumax II). This culture was maintained with RBCs up to 5% hematocrit. The culture medium was changed daily, and all cultures were maintained under a 90% N2/5% CO2/5% O2 gas mixture at 37 °C. All compounds were purchased from Sigma-Aldrich (Cotia, Brazil).
Blood-stage P. knowlesi cultures were diluted to 0.5% parasitemia and brought to 2% hematocrit for growth in 96-well plates containing the desired drug concentration series (200 µL of culture/well). […] Parasite growth in the plates was measured by luminescence (NanoLuc method). […] The plates were then incubated for 3 min at room temperature and the luminescence was assessed using a plate luminometer (Molecular Devices, San Jose, CA, USA) with 1 s integration time. Luminescence readings were normalized to values from control wells containing no drug. […]

[5] = test system: P. falciparum; assay: Speed-of-action assay; type: cell-based, Plasmodium falciparum
Procedure: The speed-of-action assay assesses the inhibitory activity of the tested compounds after 24, 48, and 72 h of drug exposure. […] Moreover, to confirm the speed-of-action, the morphological development of the parasite in parallel with the IC50 assessment was verified. The parasites in the negative control wells developed according to the expected timeline (Figure 5a). […] Brussonol caused parasite death within the first 24 h of incubation as observed for artesunate (Figure 5a).
In this method, three 96-well plates were prepared by adding 180 µL of the parasite’s inoculum with 0.5% parasitemia and 2% hematocrit. A serial dilution of the compounds was added to each plate; the starting concentration for brussonol was 6× IC50, while for artesunate and pyrimethamine (fast- and slow-acting controls, respectively) were 10× IC50. In addition, a positive and negative control, which corresponded to parasite cultures with no addition of inhibitor and non-parasitized erythrocytes, respectively, were used for the parasite’s control growth. Each plate was treated for a different period (24, 48, or 72 h), and the first two plates were washed twice with fresh medium to remove the inhibitor, followed by incubation of 48 and 24 h, respectively. […] A statistical analysis using a one-way ANOVA test was done to compare each time point using GraphPad Prism version 8.0.1 for Windows, GraphPad Software, San Diego, California USA, www.graphpad.com, accessed on 1 February 2022. In parallel, the morphological development of the parasite under the compounds’ pressure was assessed by adding the compounds tested at the highest concentration evaluated. Blood smears of each well were made and stained at time points 0, 24, 48, and 72 h.

[6] = test system: P. falciparum 3D7 strain; assay: Chemical rescue assay with isopentenyl pyrophosphate (IPP); type: cell-based, Plasmodium falciparum; conditions: for IC50: Plasmodium falciparum, 3D7 strain, 72 h
Source text: To evaluate whether brussonol interfered with the biosynthesis of […] in malaria parasites, we conducted a chemical rescue assay. The assay identifies compounds that interfere with the metabolism of isoprenoids by “rescuing” their growth inhibition through the supplementation of isopentenyl pyrophosphate (IPP), a key precursor of isoprenoid biosynthesis. […] Thus, the chemical rescue assay compares the IC50 values of the tested compound in the presence and absence of IPP. We used fosmidomycin (FOS) as a positive control for growth inhibition rescuing upon supplementation of IPP (Figure 7b). In this assay, compounds that interfere in the metabolism of isoprenoids show a significant increment in the IC50 value in the presence of IPP (Figure 7b).
The chemical rescue assay was carried out as described by Yeh and DeRisi (2011). This assay consists in verifying the IC50 value of the tested compounds with and without the isopentenyl pyrophosphate (IPP), purchased from Isoprenoids, LC (Florida, USA). Briefly, 3D7 strain ring stages were cultured in 96-well plates, with 0.5% parasitemia and 2% hematocrit. Non-parasitized erythrocytes and parasitized erythrocytes without drugs were used as growth controls, and fosmidomycin (FOS) was used as a positive control for chemical rescue. Serial dilutions of brussonol and FOS were prepared in duplicates. In the same 96-well plate, brussonol and FOS had their antiplasmodial activity evaluated with and without supplementation of 200 µM IPP. Plates were incubated for 72 h and analyzed by the SYBR Green I assay.

Q: For `CC(C)c1cc2c(c(O)c1O)C[C@@]13CCCC(C)(C)[C@@H]1C[C@@H]2O3` [Compound 1, brussonol], which IC50 [1] is on record?
A: Its IC50 is 7 ± 2 µM.

Q: And the IC50 [2]?
A: The IC50 was 7 ± 2 µM.

Q: And the IC50 [3]?
A: The IC50 was 12 ± 3 µM.

Q: What about the IC50 [4] of the same compound?
A: The IC50 was 20 ± 4 µM.

Q: And the speed of action ([5]; IC50 compared after 24, 48 and 72 h of drug exposure)?
A: Its speed of action is “fast-acting in vitro inhibition”.

Q: What about the “time of parasite death (morphological development, pyknotic nuclei)” value ([5]; highest concentration evaluated, Giemsa smears at 0, 24, 48, 72 h) of the same compound?
A: Its value is ≤ 24 h.

Q: And the “reversal of growth inhibition by IPP supplementation” value ([6]; 200 µM IPP)?
A: Its value is “did not reverse the growth inhibition”.

Q: And the IC50 ([6]; with 200 µM IPP, read-out: IC50 in the presence of IPP)?
A: Its IC50 is 13.9 ± 0.2 µM.

Q: And the IC50 ([6]; without IPP, read-out: IC50 in the absence of IPP)?
A: Its IC50 is 18 ± 1 µM.
